Measured values reported in ChEMBL document CHEMBL3044804, “Morphogenetic and Toxic Activity of Seven Novel 2, 2-Dimethylchromene Derivatives on Larvae of Oncopeltus fasciatus and Pieris brassicae” (1991).

Experiments:
Format in all cases: functional
[1] = test system: Oncopeltus fasciatus; experiment: Morphogenetic activity against fifth-instar nymphs of Oncopeltus fasciatus assessed as occurrence of precocious metamorphosis at 3 ug/cm'2
[2] = test system: Oncopeltus fasciatus; experiment: Morphogenetic activity against fourth-instar nymphs of Oncopeltus fasciatus assessed as occurrence of precocious metamorphosis at 3 ug/cm'2
[3] = test system: Oncopeltus fasciatus; experiment: Morphogenetic activity against third-instar nymphs of Oncopeltus fasciatus assessed as occurrence of precocious metamorphosis at 3 ug/cm'2
[4] = test system: Pieris brassicae; experiment: Insecticidal activity against fourth-instar larvae of Pieris brassicae assessed as mortality per insect after 5 days
[5] = test system: Oncopeltus fasciatus; experiment: Morphogenetic activity against second-instar nymphs of Oncopeltus fasciatus assessed as mortality at 3 ug/cm'2

## CCOc1cc2c(cc1OC)C=CC(C)(C)O2
[1]
  Activity: 15%
[2]
  Activity: 5%
[3]
  Activity: 60%
[4]
  LD50: 24.5 µg
[5]
  Activity: 20%

## COc1cc2c(c(C)c1OC)C=CC(C)(C)O2
[1]
  Activity: 0%
[2]
  Activity: 45%
[3]
  Activity: 25%
[4]
  LD50: 96.5 µg
[5]
  Activity: 30%

## CCCOc1cc2c(c(C)c1OC)C=CC(C)(C)O2
[1]
  Activity: 0%
[2]
  Activity: 80%
[3]
  Activity: 0%
[4]
  LD50: 32.7 µg
[5]
  Activity: 15%

## COc1cc2c(cc1OC)OC(C)(C)C=C2 [PROCOCENE II]
[1]
  Activity: 5%
[2]
  Activity: 27.5%
[3]
  Activity: 22.5%
[4]
  LD50: 39.5 µg
[5]
  Activity: 45%

## CCOc1cc2c(c(C)c1OC)C=CC(C)(C)O2
[1]
  Activity: 0%
[2]
  Activity: 95%
[3]
  Activity: 0%
[4]
  LD50: 88.3 µg
[5]
  Activity: 5%

## CCC(C)Oc1cc2c(c(C)c1OC)C=CC(C)(C)O2 (configuration not stated)
[1]
  Activity: 37.5%
[2]
  Activity: 0%
[3]
  Activity: 0%
[4]
  LD50: 20 µg
[5]
  Activity: 47.5%

## CCOc1c(OC)cc2c(c1C)C=CC(C)(C)O2
[2]
  Activity: 37.5%
[3]
  Activity: 0%
[4]
  LD50: 71 µg
[5]
  Activity: 52.5%

## COc1c(OC2CCCC2)cc2c(c1C)C=CC(C)(C)O2
[3]
  Activity: 0%
[4]
  LD50: 22.4 µg
[5]
  Activity: 52.5%

## C#CCOc1cc2c(c(C)c1OC)C=CC(C)(C)O2
[1]
  Activity: 20%
[2]
  Activity: 0%
[3]
  Activity: 0%
[4]
  LD50: 29.9 µg
[5]
  Activity: 30%
